Experimental data reported in PubChem BioAssay AID248 (DTP/NCI, 2004).
“And” between values parts separate entries of the source, which are not always exact repeats. Identical values can stand only once. Inconclusive results and toxic doses are left out. Cut-off read from the data, not from the text of the source: active = T/C of 150% or more; inactive = T/C below 125%.

Tested on: L1210 leukemia ip in BDF1 mice, survival T/C
Assay: NCI In Vivo Anticancer Drug Screen. Data for tumor model L1210 Leukemia (intraperitoneal) in B6D2F1 (BDF1) mice
Conditions: endpoint: mean survival time, higher = longer survival
Summary of the method: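 Each compound was tested against a transplantable tumor grown in mice. The endpoint was survival, with treated animals benchmarked against vehicle controls as a simple ratio.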

[1] = dose: 12.5 mg/kg/injection, schedule: Q01DX009 (ip), vehicle: saline
[2] = dose: 25.0 mg/kg/injection, schedule: Q01DX009 (ip), vehicle: saline
[3] = dose: 150.0 mg/kg/injection, schedule: Q01DX001 (ip), vehicle: saline
[4] = dose: 100.0 mg/kg/injection, schedule: Q01DX009 (ip), vehicle: saline with Tween-80
[5] = dose: 200.0 mg/kg/injection, schedule: Q01DX009 (ip), vehicle: saline with Tween-80
[6] = dose: 400.0 mg/kg/injection, schedule: Q01DX009 (ip), vehicle: saline with Tween-80

Measured: T/C

COc1cc([C@@H]2c3cc4c(cc3[C@H](O)[C@H]3COC(=O)[C@@H]23)OCO4)cc(OC)c1OC
inactive: dose: 6.0 mg/kg/injection, schedule: Q01DX009 (ip), vehicle: Klucel (hydroxypropylcellulose) (HPC) 88 % of control | dose: 6.25 mg/kg/injection, schedule: Q01DX009 (ip), vehicle: saline 105 % of control | dose: 7.0 mg/kg/injection, schedule: Q01DX Z (ip), vehicle: methylcellulose (MC) 100 % of control | dose: 11.0 mg/kg/injection, schedule: Q01DX Z (ip), vehicle: methylcellulose (MC) 112 % of control | dose: 12.0 mg/kg/injection, schedule: Q01DX009 (ip), vehicle: Klucel (hydroxypropylcellulose) (HPC) 95 % of control | [1] 107 % of control | dose: 15.0 mg/kg/injection, schedule: Q01DX Z (ip), vehicle: methylcellulose (MC) 116 % of control | dose: 15.0 mg/kg/injection, schedule: Q04DX003 (ip), vehicle: Klucel (hydroxypropylcellulose) (HPC) 107 % of control | dose: 16.0 mg/kg/injection, schedule: Q01DX Z (ip), vehicle: methylcellulose (MC) 120 % of control | dose: 24.0 mg/kg/injection, schedule: Q01DX009 (ip), vehicle: Klucel (hydroxypropylcellulose) (HPC) 101 % of control | dose: 24.0 mg/kg/injection, schedule: Q01DX Z (ip), vehicle: methylcellulose (MC) 88 % of control | [2] 113 % of control | dose: 30.0 mg/kg/injection, schedule: Q01DX Z (ip), vehicle: methylcellulose (MC) 101 % of control | dose: 30.0 mg/kg/injection, schedule: Q04DX003 (ip), vehicle: Klucel (hydroxypropylcellulose) (HPC) 96 % of control | dose: 37.5 mg/kg/injection, schedule: Q04DX003 (ip), vehicle: Klucel (hydroxypropylcellulose) (HPC) 97 % of control | dose: 45.0 mg/kg/injection, schedule: Q01DX001 (ip), vehicle: saline 94 % of control and 102 % of control | dose: 48.0 mg/kg/injection, schedule: Q01DX009 (ip), vehicle: Klucel (hydroxypropylcellulose) (HPC) 120 % of control | dose: 50.0 mg/kg/injection, schedule: Q01DX001 (ip), vehicle: carboxymethylcellulose (CMC) 107 % of control | dose: 60.0 mg/kg/injection, schedule: Q04DX003 (ip), vehicle: Klucel (hydroxypropylcellulose) (HPC) 100 % of control | dose: 65.0 mg/kg/injection, schedule: Q01DX001 (ip), vehicle: saline 96 % of control and 124 % of control | dose: 75.0 mg/kg/injection, schedule: Q01DX009 (ip), vehicle: saline 92 % of control | dose: 75.0 mg/kg/injection, schedule: Q04DX003 (ip), vehicle: Klucel (hydroxypropylcellulose) (HPC) 114 % of control | dose: 100.0 mg/kg/injection, schedule: Q01DX001 (ip), vehicle: carboxymethylcellulose (CMC) 105 % of control | dose: 100.0 mg/kg/injection, schedule: Q01DX001 (ip), vehicle: saline 96 % of control | dose: 120.0 mg/kg/injection, schedule: Q04DX003 (ip), vehicle: Klucel (hydroxypropylcellulose) (HPC) 104 % of control | [3] 93 % of control and 107 % of control | dose: 150.0 mg/kg/injection, schedule: Q04DX003 (ip), vehicle: Klucel (hydroxypropylcellulose) (HPC) 111 % of control | dose: 200.0 mg/kg/injection, schedule: Q01DX001 (ip), vehicle: carboxymethylcellulose (CMC) 110 % of control | dose: 240.0 mg/kg/injection, schedule: Q04DX003 (ip), vehicle: Klucel (hydroxypropylcellulose) (HPC) 91 % of control | dose: 300.0 mg/kg/injection, schedule: Q04DX003 (ip), vehicle: Klucel (hydroxypropylcellulose) (HPC) 100 % of control | dose: 400.0 mg/kg/injection, schedule: Q01DX001 (ip), vehicle: carboxymethylcellulose (CMC) 102 % of control

O=c1[nH]cnc2nc(-c3cccc([N+](=O)[O-])c3)[nH]c12
inactive: dose: 100.0 mg/kg/injection, schedule: Q04DX003 (ip), vehicle: gum acacia 102 % of control | dose: 200.0 mg/kg/injection, schedule: Q04DX003 (ip), vehicle: gum acacia 92 % of control | dose: 400.0 mg/kg/injection, schedule: Q04DX003 (ip), vehicle: gum acacia 96 % of control

C=CCc1cc(OC)c(OC)c(OC)c1
inactive: [4] 104 % of control | [5] 101 % of control | [6] 101 % of control

CCO/N=C1\C(C)(C)C(C)(C)C(C)(C)C1(C)SS(=O)(=O)O (stereo unspecified)
inactive: dose: 75.0 mg/kg/injection, schedule: Q04DX002 (ip), vehicle: saline 101 % of control | dose: 150.0 mg/kg/injection, schedule: Q04DX002 (ip), vehicle: saline 96 % of control | dose: 300.0 mg/kg/injection, schedule: Q04DX002 (ip), vehicle: saline 93 % of control

C=CCSc1nc2c(=O)[nH]c(N)nc2n1C1OC(CO)C(O)C1O (stereo unspecified)
inactive: dose: 100.0 mg/kg/injection, schedule: Q01DX005 (ip), vehicle: saline 100 % of control | dose: 200.0 mg/kg/injection, schedule: Q01DX005 (ip), vehicle: saline 103 % of control

COc1cc2nn(-c3ccccc3N)nc2cc1OC
inactive: dose: 50.0 mg/kg/injection, schedule: Q01DX009 (ip), vehicle: saline with Tween-80 98 % of control | [4] 90 % of control | [5] 102 % of control

O=C1c2ccccc2-c2ccc(-c3ccc4c5c(cccc35)C(=O)c3ccccc3-4)c3cccc1c23
inactive: dose: 100.0 mg/kg/injection, schedule: Q04DX003 (ip), vehicle: Klucel (hydroxypropylcellulose) (HPC) 89 % of control | dose: 200.0 mg/kg/injection, schedule: Q04DX003 (ip), vehicle: Klucel (hydroxypropylcellulose) (HPC) 95 % of control | dose: 400.0 mg/kg/injection, schedule: Q04DX003 (ip), vehicle: Klucel (hydroxypropylcellulose) (HPC) 89 % of control

CNCC(O)c1cc(OC)c(OC)c(OC)c1 (stereo unspecified)
inactive: dose: 100.0 mg/kg/injection, schedule: Q04DX002 (ip), vehicle: saline 102 % of control | dose: 200.0 mg/kg/injection, schedule: Q04DX002 (ip), vehicle: saline 93 % of control | dose: 400.0 mg/kg/injection, schedule: Q04DX002 (ip), vehicle: saline 96 % of control

COC(=O)c1ccc2c(ccc[n+]2C)c1
inactive: dose: 37.5 mg/kg/injection, schedule: Q04DX003 (ip), vehicle: saline with Tween-80 96 % of control | dose: 75.0 mg/kg/injection, schedule: Q01DX001 (ip), vehicle: saline 97 % of control | dose: 75.0 mg/kg/injection, schedule: Q04DX003 (ip), vehicle: saline with Tween-80 96 % of control | [3] 90 % of control | dose: 150.0 mg/kg/injection, schedule: Q04DX003 (ip), vehicle: saline with Tween-80 89 % of control

O=c1c2ccccc2sc2c(CO)ccc(NCCN3CCCCC3)c12
inactive: dose: 50.0 mg/kg/injection, schedule: Q01DX009 (ip), vehicle: Klucel (hydroxypropylcellulose) (HPC) 99 % of control | dose: 100.0 mg/kg/injection, schedule: Q01DX009 (ip), vehicle: Klucel (hydroxypropylcellulose) (HPC) 96 % of control | dose: 200.0 mg/kg/injection, schedule: Q01DX009 (ip), vehicle: Klucel (hydroxypropylcellulose) (HPC) 120 % of control

CCOC(=O)C1(Cl)OC(Cl)(Cl)C(Cl)C1Cl (stereo unspecified)
inactive: dose: 10.0 mg/kg/injection, schedule: Q01DX001 (ip), vehicle: saline 92 % of control | dose: 20.0 mg/kg/injection, schedule: Q01DX001 (ip), vehicle: saline 90 % of control | dose: 40.0 mg/kg/injection, schedule: Q01DX001 (ip), vehicle: saline 103 % of control | dose: 80.0 mg/kg/injection, schedule: Q01DX001 (ip), vehicle: saline 90 % of control

CNC(C)Cc1ccc2c(c1)OCO2 (stereo unspecified)
inactive: [1] 105 % of control | [2] 98 % of control | dose: 25.0 mg/kg/injection, schedule: Q04DX003 (ip), vehicle: saline 106 % of control | dose: 50.0 mg/kg/injection, schedule: Q01DX009 (ip), vehicle: saline 100 % of control and 104 % of control | dose: 50.0 mg/kg/injection, schedule: Q04DX003 (ip), vehicle: saline 104 % of control | dose: 75.0 mg/kg/injection, schedule: Q04DX003 (ip), vehicle: saline 92 % of control | dose: 100.0 mg/kg/injection, schedule: Q04DX003 (ip), vehicle: saline 98 % of control

O=c1cc(NCc2cccc3ccccc23)[nH]c(=O)[nH]1
inactive: dose: 37.5 mg/kg/injection, schedule: Q01DX001 (ip), vehicle: Klucel (hydroxypropylcellulose) (HPC) 97 % of control | dose: 75.0 mg/kg/injection, schedule: Q01DX001 (ip), vehicle: Klucel (hydroxypropylcellulose) (HPC) 95 % of control | dose: 150.0 mg/kg/injection, schedule: Q01DX001 (ip), vehicle: Klucel (hydroxypropylcellulose) (HPC) 93 % of control

CS(=O)(=O)OCCCN(CCCOS(C)(=O)=O)c1ccc(C=Nc2ccc(-c3csc(COc4ccc(Cl)cc4)n3)cc2)cc1
inactive: [4] 97 % of control | [5] 94 % of control | [6] 94 % of control
